# Assay results taken from ChEMBL document CHEMBL3751845, “Synthesis, molecular docking and biological evaluation of N,N-disubstituted 2-aminothiazolines as a new class of butyrylcholinesterase and carboxylesterase inhibitors” (Bioorg Med Chem, 2016).
# Legend:
# Acetylcholinesterase [1] = target: T1, Acetylcholinesterase (Homo sapiens, UniProt P22303)
# Description: (§1) Inhibition of human erythrocyte AChE using acetylthiocholine iodide as substrate preincubated for 10 mins followed by substrate addition by Ellman's method
# Cholinesterase [2] = target: T2, Cholinesterase (Equus caballus, UniProt P81908); assay: Inhibition of equine serum BChE using butyrylthiocholine iodide as substrate preincubated for 10 mins followed by substrate addition by Ellman's method
# Liver carboxylesterase [3] = target: T3, Liver carboxylesterase (Sus scrofa, UniProt Q29550); assay: Inhibition of porcine liver carboxylesterase using 4-nitrophenol acetate as substrate by spectrophotometric analysis
# T3 sequence (Q29550 whole entry): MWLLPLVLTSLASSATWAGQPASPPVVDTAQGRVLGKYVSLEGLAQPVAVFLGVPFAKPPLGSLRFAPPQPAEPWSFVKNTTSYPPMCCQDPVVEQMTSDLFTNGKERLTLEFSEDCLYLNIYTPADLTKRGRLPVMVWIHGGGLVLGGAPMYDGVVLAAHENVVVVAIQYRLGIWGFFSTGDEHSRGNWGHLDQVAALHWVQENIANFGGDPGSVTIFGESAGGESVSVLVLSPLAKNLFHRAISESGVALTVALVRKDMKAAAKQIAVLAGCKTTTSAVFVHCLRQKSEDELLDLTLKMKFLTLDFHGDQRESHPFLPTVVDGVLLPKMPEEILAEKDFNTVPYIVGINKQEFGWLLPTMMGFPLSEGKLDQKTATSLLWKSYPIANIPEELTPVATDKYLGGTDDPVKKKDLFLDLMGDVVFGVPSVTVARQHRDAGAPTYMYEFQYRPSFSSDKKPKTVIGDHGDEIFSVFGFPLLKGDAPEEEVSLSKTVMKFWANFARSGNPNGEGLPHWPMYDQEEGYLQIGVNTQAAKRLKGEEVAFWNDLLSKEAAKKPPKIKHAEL
# Cholinesterase [4] = target: T2, Cholinesterase; assay: Competitive inhibition of equine serum BChE using butyrylthiocholine iodide as substrate assessed as steady state inhibition constant preincubated for 10 mins followed by substrate addition by Lineweaver-Burk double reciprocal plot analysis
# Cholinesterase [5] = target: T2, Cholinesterase; assay: Noncompetitive inhibition of equine serum BChE using butyrylthiocholine iodide as substrate assessed as steady state inhibition constant preincubated for 10 mins followed by substrate addition by Lineweaver-Burk double reciprocal plot analysis
# Liver carboxylesterase [6] = target: T3, Liver carboxylesterase; assay: Noncompetitive inhibition of porcine liver carboxylesterase using 4-nitrophenol acetate as substrate assessed as steady state inhibition constant preincubated for 10 mins followed by substrate addition by Lineweaver-Burk double reciprocal plot analysis
# [7] = Cytotoxicity against human fetal MSC assessed as reduction in cell viability at <30 uM after 72 hrs by MTT assay
# Acetylcholinesterase [8] = target: T1, Acetylcholinesterase; remark: listed apart in the source
# Description: as §1
# T2 sequence (P81908 whole entry): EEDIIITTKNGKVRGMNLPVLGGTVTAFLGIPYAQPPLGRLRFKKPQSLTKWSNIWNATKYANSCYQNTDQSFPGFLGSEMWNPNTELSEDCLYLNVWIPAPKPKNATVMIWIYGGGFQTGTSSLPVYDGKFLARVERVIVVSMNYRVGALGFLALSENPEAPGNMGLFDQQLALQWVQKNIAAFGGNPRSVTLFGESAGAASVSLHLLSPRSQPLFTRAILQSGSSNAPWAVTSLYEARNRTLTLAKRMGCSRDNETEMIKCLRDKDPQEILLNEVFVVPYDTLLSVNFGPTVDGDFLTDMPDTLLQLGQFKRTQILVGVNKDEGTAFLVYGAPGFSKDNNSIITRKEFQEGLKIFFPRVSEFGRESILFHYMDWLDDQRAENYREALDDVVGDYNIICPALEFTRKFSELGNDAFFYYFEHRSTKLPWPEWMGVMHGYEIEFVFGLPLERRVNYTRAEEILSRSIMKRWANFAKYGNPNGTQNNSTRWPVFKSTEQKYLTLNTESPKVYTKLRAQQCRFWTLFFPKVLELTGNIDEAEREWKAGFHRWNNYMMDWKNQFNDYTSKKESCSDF
# T1 sequence (P22303 whole entry): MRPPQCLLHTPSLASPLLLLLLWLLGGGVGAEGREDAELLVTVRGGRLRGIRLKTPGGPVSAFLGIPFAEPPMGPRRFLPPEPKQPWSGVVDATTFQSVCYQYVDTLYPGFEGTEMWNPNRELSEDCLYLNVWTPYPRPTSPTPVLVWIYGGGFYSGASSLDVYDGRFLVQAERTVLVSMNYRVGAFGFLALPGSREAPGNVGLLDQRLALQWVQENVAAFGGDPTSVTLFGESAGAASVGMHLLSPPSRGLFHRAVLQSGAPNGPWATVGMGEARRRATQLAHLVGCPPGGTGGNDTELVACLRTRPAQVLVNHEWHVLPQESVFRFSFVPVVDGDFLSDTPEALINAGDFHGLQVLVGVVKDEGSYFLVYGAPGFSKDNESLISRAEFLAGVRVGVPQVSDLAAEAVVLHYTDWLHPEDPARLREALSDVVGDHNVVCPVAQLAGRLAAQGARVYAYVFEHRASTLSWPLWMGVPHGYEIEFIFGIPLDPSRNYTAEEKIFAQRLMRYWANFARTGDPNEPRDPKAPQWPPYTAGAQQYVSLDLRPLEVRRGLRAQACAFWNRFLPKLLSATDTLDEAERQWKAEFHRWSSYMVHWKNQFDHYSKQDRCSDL
smiles,measurement,setting,value
I.ICC1CN=C(Nc2ccc3c(c2)oc2ccccc23)S1 (stereo unspecified),IC50,Acetylcholinesterase [1],Not Active
same,IC50,Cholinesterase [2],> 100 µM
same,IC50,Liver carboxylesterase [3]; read-out: IC50,> 100 µM
I.ICC1CN=C(N(Cc2ccccc2)Cc2ccccc2)S1 (stereo unspecified),IC50,Acetylcholinesterase [1],Not Active
same,IC50,Cholinesterase [2],25 µM
same,IC50,Liver carboxylesterase [3]; read-out: IC50,46 µM
Br.CC(c1ccccc1)N(Cc1ccccc1)C1=NCC(CBr)S1 (stereo unspecified),IC50,Acetylcholinesterase [1],Not Active
same,IC50,Cholinesterase [2],14 µM
same,IC50,Liver carboxylesterase [3]; read-out: IC50,> 100 µM
Br.BrCC1CN=C(N(Cc2ccccc2)Cc2ccccc2)S1 (stereo unspecified),IC50,Acetylcholinesterase [1],Not Active
same,IC50,Cholinesterase [2],26 µM
same,IC50,Liver carboxylesterase [3]; read-out: IC50,32 µM
Br.Clc1ccccc1CN(Cc1cccnc1)C1=NCC(CBr)S1 (stereo unspecified),IC50,Acetylcholinesterase [1],Not Active
same,IC50,Cholinesterase [2],25 µM
same,IC50,Liver carboxylesterase [3]; read-out: IC50,> 100 µM
CC(C)c1ccc(CN(Cc2ccccc2)C2=NCC(CI)S2)cc1.I (stereo unspecified),IC50,Acetylcholinesterase [1],Not Active
same,Ki,Cholinesterase [4],1.34 µM
same,Ki,Cholinesterase [5],7.56 µM
same,Ki,Liver carboxylesterase [6],2.09 µM
same,Activity,[7],Non-toxic
same,IC50,Cholinesterase [2],4.14 µM
same,IC50,Liver carboxylesterase [3]; read-out: IC50,2.13 µM
CC(C)(C)c1cc(CN(Cc2ccccc2)C2=NCC(CI)S2)cc(C(C)(C)C)c1O.I (stereo unspecified),IC50,Acetylcholinesterase [1],Not Active
same,IC50,Cholinesterase [2],> 100 µM
same,IC50,Liver carboxylesterase [3],Not Active
Br.CC(C)c1ccc(CN(Cc2ccccc2)C2=NCC(CBr)S2)cc1 (stereo unspecified),IC50,Acetylcholinesterase [1],Not Active
same,Ki,Liver carboxylesterase [6],3.54 µM
same,Activity,[7],Non-toxic
same,IC50,Cholinesterase [2],11 µM
same,IC50,Liver carboxylesterase [3]; read-out: IC50,2.55 µM
COc1ccc(CN(Cc2ccccc2)C2=NCC(CI)S2)cc1OC (stereo unspecified),IC50,Acetylcholinesterase [8],> 100 µM
same,IC50,Cholinesterase [2],20 µM
same,IC50,Liver carboxylesterase [3]; read-out: IC50,> 100 µM
Clc1ccccc1CN(Cc1ccccc1)C1=NCC(CI)S1.I (stereo unspecified),IC50,Acetylcholinesterase [1],Not Active
same,IC50,Cholinesterase [2],44 µM
same,IC50,Liver carboxylesterase [3]; read-out: IC50,117 µM
Clc1ccccc1CN(Cc1cccnc1)C1=NCC(CI)S1.I (stereo unspecified),IC50,Acetylcholinesterase [1],Not Active
same,IC50,Cholinesterase [2],21 µM
same,IC50,Liver carboxylesterase [3]; read-out: IC50,> 100 µM
I.ICC1CN=C(N(Cc2ccccc2)Cc2ccco2)S1 (stereo unspecified),IC50,Acetylcholinesterase [1],Not Active
same,IC50,Cholinesterase [2],42 µM
same,IC50,Liver carboxylesterase [3]; read-out: IC50,131 µM
COc1ccc(CN(Cc2ccccc2)C2=NCC(CI)S2)cc1.I (stereo unspecified),IC50,Acetylcholinesterase [1],Not Active
same,Ki,Liver carboxylesterase [6],7.81 µM
same,Activity,[7],Non-toxic
same,IC50,Cholinesterase [2],25 µM
same,IC50,Liver carboxylesterase [3]; read-out: IC50,4.66 µM
Br.COc1ccc(CN(Cc2ccccc2)C2=NCC(CBr)S2)cc1 (stereo unspecified),IC50,Acetylcholinesterase [1],Not Active
same,Ki,Liver carboxylesterase [6],7.37 µM
same,Activity,[7],Non-toxic
same,IC50,Cholinesterase [2],34 µM
same,IC50,Liver carboxylesterase [3]; read-out: IC50,4.9 µM
Br.Clc1ccc(CN(Cc2cccnc2)C2=NCC(CBr)S2)cc1 (stereo unspecified),IC50,Acetylcholinesterase [1],Not Active
same,Ki,Cholinesterase [4],9.51 µM
same,Ki,Cholinesterase [5],19.9 µM
same,Activity,[7],Non-toxic
same,IC50,Cholinesterase [2],30 µM
same,IC50,Liver carboxylesterase [3]; read-out: IC50,> 100 µM
Fc1ccc(CN(Cc2ccccc2)C2=NCC(CI)S2)cc1.I (stereo unspecified),IC50,Acetylcholinesterase [1],Not Active
same,IC50,Cholinesterase [2],17 µM
same,IC50,Liver carboxylesterase [3]; read-out: IC50,80 µM
Br.CC(C)(C)c1ccc(CN(Cc2ccccc2)C2=NCC(CBr)S2)cc1 (stereo unspecified),IC50,Acetylcholinesterase [1],Not Active
same,Ki,Cholinesterase [4],0.62 µM
same,Ki,Liver carboxylesterase [6],0.44 µM
same,Activity,[7],Non-toxic
same,IC50,Cholinesterase [2],2.34 µM
same,IC50,Liver carboxylesterase [3]; read-out: IC50,0.32 µM
Br.Fc1ccc(CN(Cc2ccccc2)C2=NCC(CBr)S2)cc1 (stereo unspecified),IC50,Acetylcholinesterase [1],Not Active
same,IC50,Cholinesterase [2],38 µM
same,IC50,Liver carboxylesterase [3]; read-out: IC50,40 µM
CC(C)(C)c1ccc(CN(Cc2ccccc2)C2=NCC(CI)S2)cc1.I (stereo unspecified),IC50,Acetylcholinesterase [1],Not Active
same,Ki,Cholinesterase [4],0.27 µM
same,Ki,Cholinesterase [5],1.2 µM
same,Ki,Liver carboxylesterase [6],0.4 µM
same,Activity,[7],Non-toxic
same,IC50,Cholinesterase [2],0.77 µM
same,IC50,Liver carboxylesterase [3]; read-out: IC50,0.22 µM
CC(c1ccccc1)N(Cc1ccccc1)C1=NCC(CI)S1.I (stereo unspecified),IC50,Acetylcholinesterase [1],Not Active
same,IC50,Cholinesterase [2],> 100 µM
same,IC50,Liver carboxylesterase [3]; read-out: IC50,19 µM
Clc1ccc(CN(Cc2cccnc2)C2=NCC(CI)S2)cc1.I (stereo unspecified),Ki,Cholinesterase [4],0.67 µM
same,Ki,Cholinesterase [5],3.6 µM
same,Activity,[7],Non-toxic
same,IC50,Acetylcholinesterase [8],> 100 µM
same,IC50,Cholinesterase [2],2.47 µM
same,IC50,Liver carboxylesterase [3]; read-out: IC50,18 µM
